We go through 2 compounds from patent US8436186B2, “Thiazolyl piperidine derivatives” (Merck Patent Gesellschaft mit beschrankter Haftung, priority 2008, dated 2013).

In general, IC50 refers to the concentration at which inhibition is half-maximal. Read a high IC50 as weaker potency.

The structures appear in SMILES notation. Bounds are passed on as bounds.

This assay has as its target SphK1 (Homo sapiens, UniProt Q9NYA1). Nature of the assay: SphK1 384-well flashplate kinase assay. The format is biochemical. The conditions noted are these: enzyme assay. How it is done:
The kinase assay is carried out as a 384-well flashplate assay.
5 nM modified SphK1, 800 nM omega-biotinyl-D-erythro-sphingosine and 1 μM ATP (with 0.3 μCi of ^33P-ATP/well) are incubated in a total volume of 50 μl (25 mM HEPES, 5 mM MgCl2, 1 mM dithiothreitol, 0.01% of Brij35, 0.1% of BSA (fatty acid-free), pH 7.4) without or with test substance (5-10 concentrations) at 30° C. for 120 min. The reaction is terminated using 25 μl of 200 mM EDTA solution, filtered off with suction at room temperature after 30 min, and the cavities are washed 3 times with 100 μl of 0.9% NaCl solution. The non-specific proportion of the kinase reaction (blank) is determined using 0.5 mM NaCl. Radioactivity is measured in topcount. IC50 values are calculated using RS1.

Chain of SphK1 (Q9NYA1 whole entry): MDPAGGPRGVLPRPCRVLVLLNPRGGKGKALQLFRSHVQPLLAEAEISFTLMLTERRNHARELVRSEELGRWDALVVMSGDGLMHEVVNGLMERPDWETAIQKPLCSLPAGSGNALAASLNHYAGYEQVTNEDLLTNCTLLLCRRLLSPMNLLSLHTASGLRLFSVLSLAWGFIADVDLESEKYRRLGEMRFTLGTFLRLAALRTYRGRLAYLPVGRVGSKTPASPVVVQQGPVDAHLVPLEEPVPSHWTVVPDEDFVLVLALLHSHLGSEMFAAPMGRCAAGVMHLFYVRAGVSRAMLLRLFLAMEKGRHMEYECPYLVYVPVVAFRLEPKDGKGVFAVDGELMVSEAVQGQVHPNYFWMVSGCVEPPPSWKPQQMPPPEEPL

Compound `Cc1cc(-c2csc(C3CCNCC3)n2)c(O)c2c1CCC2` [Compound C10] showed an IC50 of 1 to 10 µM.

Consider `CCc1cc2c(cc1-c1csc(C3CCNCC3)n1)C(C)(C)CCC2(C)C` [Compound C11], for which the 50% inhibitory concentration (IC50) was more than 10 µM.
